Patent US11911445B2, “Peptide YY pharmaceutical formulations, compositions, and methods” (Gila Therapeutics, Inc., priority 2018, dated 2024)
Like-named read-outs stand apart in the source and are kept apart here. No end group written: not given here.

Key:
[1] = test system: subjects with BMIs of 30 to 40 kg/m^2; experiment: Dose-escalation clinical trial, feeling of fullness assessed by VAS after lunch; type: in vivo, human
Experimental: An exemplary clinical trial was performed as a dose-escalation design trial. Approximately twelve evaluable subjects (n˜12) with BMIs of 30 to 40 kg/m^2 received a single dose of placebo followed by study drug (PYY(3-36) also known as GT-001) applied directly to the surface of the lingual mucosa with a disposable pipette followed by a one-day washout. A total of seven (7) doses was escalated to a dose of 2.5 mg/ml.
The dose can be prepared, for example, from a stock solution of 2.5 mg/ml PYY(3-36).
Subjects who complete all screening procedures and meet all inclusion and exclusion criteria described within the protocol and found to be eligible for study enrollment checked into the Study Unit (i.e., the study facility). The morning of the study, participants fasted prior to arriving at the SU. Participants fasted for at least 12 hours prior to Day 1 of the study. Participants were permitted to only drink water prior to arrival to SU and were able to brush their teeth. The following assessments and measurements were taken: • (1) Inspection of the lingual mucosa. • (2) Updating medical and medication history prior to placebo application. • (3) Assessing health status. If participant has either rhinitis or gastrointestinal distress, the participant will be discontinued for that day. • (4) Measuring body weight and BMI. • (5) Measuring vital signs (BP, HR, and body temperature). BP and HR were measured twice in the sitting position and twice in the standing position. If BP was high at baseline sitting (>160 systolic), BP was re-checked after participant was sitting for 5-10 min. Body temperature was measured once. • (6) Performing urine drug screen, urine cotinine test, alcohol breath test, and urine pregnancy test. • (7) Subjects provided a 325-400 calorie breakfast and calorie intake was recorded. • (8) Water was provided “ad-libitum” and volume recorded. • (9) Four (4) hours post breakfast, the VAS for Appetite and Satiety was performed. • (10) Inserting a cannula to obtain blood samples, obtaining a 5 ml blood sample, and screening for anti-GT-001 antibodies. • (11) Obtaining a fasting PK blood sample #1 (5 ml) 15 minutes prior to placebo. • (12) Performing a water mouthwash prior to dosing with GT-001. The mouthwash can be a rinse with 20 ml of water. • (13) Giving one milliliter (1 ml) of placebo (formulation without GT-001) to the participant to the tongue via pipette 5 minutes before lunch. • (14) The solution remained on the tongue for 1 minute followed by asking participants to swish and then swallow. • (15) Completing a VAS for like-lines (VAS completed by subjects). • (16) Collecting PK blood samples after each of seven doses at ±1 minute at 5, 10, 15, 30, and ±5 minutes at 60, 120, and 240 minutes post dose. • (17) Isolating subjects from other subjects during lunch. • (18) Provided a “ad-libitum” lunch (composed of a casserole, nutrient drink and two (2) cookies) and recording calorie intake. • (19) Having subjects complete VAS questionnaire for sweetness, sourness, bitterness, saltiness, umami, and fat taste 20 minutes after completing the meals. • (20) Recording VAS for appetite and satiety every 30 minutes for 2 hours after completing the meal. • (21) Discharging subjects. Subjects ate “at-libitum” until the 12-hour fasting period preceding the next study visit. • (22) During the SU visit, subjects were restricted from ingesting gum, candy, tobacco, carbonated drinks, and from performing exercise. During the meal, subjects were not exposed to food cues (visual, odor, or hearing) and they should eat in isolation.
Days 2, 4, 6, 8, 10, 12 and 14 treatment days are the same as day 1.
The following exemplary VAS Assessment was given to subjects to assess their feeling of fullness before and after receiving PYY(3-36) or placebo and before or after eating at various doses described herein. […]

[2] = PYY concentration in plasma after lingual administration followed by lunch; type: in vivo, human; settings: 0.25 mg/ml and 2.5 mg/ml, each followed by lunch; up to 4 hours after administration
Experimental: As shown, administering the placebo followed by food consumption induces the known and expected endogenous production of PYY resulting from food consumption peaking at approximately 20 pg/ml above pre-dose levels at 1-2 hours post-administration.
Subjects who complete all screening procedures and meet all inclusion and exclusion criteria described within the protocol and found to be eligible for study enrollment checked into the Study Unit (i.e., the study facility). The morning of the study, participants fasted prior to arriving at the SU. Participants fasted for at least 12 hours prior to Day 1 of the study. […] BP and HR were measured twice in the sitting position and twice in the standing position. […] Body temperature was measured once. • (6) Performing urine drug screen, urine cotinine test, alcohol breath test, and urine pregnancy test. • (7) Subjects provided a 325-400 calorie breakfast and calorie intake was recorded. • (8) Water was provided “ad-libitum” and volume recorded. • (9) Four (4) hours post breakfast, the VAS for Appetite and Satiety was performed. • (10) Inserting a cannula to obtain blood samples, obtaining a 5 ml blood sample, and screening for anti-GT-001 antibodies. • (11) Obtaining a fasting PK blood sample #1 (5 ml) 15 minutes prior to placebo. • (12) Performing a water mouthwash prior to dosing with GT-001. […]

mice = settings: cited from earlier work; for effect on 1-hour food intake: augmentation of salivary peptide; for reduction of caloric intake as compared to controls / caloric intake: mice; for reduction of caloric intake as compared to controls: salivary augmentation; for caloric intake: vehicle 4.10±0.04 kcal
rodents = settings: augmentation of salivary PYY(3-36); cited from earlier work

Substance	feeling of fullness, VAS score (FIG. 1) ([1]; dose 25 ng applied to the tongue, 120 minutes post-lunch, 12 subjects, significantly above placebo level)	feeling of fullness, VAS score (FIG. 2) ([1]; dose 25 ng, up to 60 minutes post-lunch)	feeling of fullness, VAS score (FIG. 1) ([1]; dose 2.5 μg applied to the tongue, post-lunch, 12 subjects)	feeling of fullness, VAS score (FIG. 2) ([1]; dose 25 μg, maintained out to 120 minutes post-lunch)	feeling of fullness, VAS scale (FIG. 1) ([1]; dose 250 μg applied to the tongue, post-lunch, 12 subjects)	feeling of fullness, VAS score (FIG. 2) ([1]; dose 250 μg, maintained out to 120 minutes post-lunch)	level of PYY in plasma versus placebo/meal combination (FIG. 3) [2]	effect on 1-hour food intake (mice)	reduction of caloric intake as compared to controls (mice; 0.3 μg/100 g)	caloric intake (mice; 0.3 μg/100 g, p=0.01)	reduction of caloric intake as compared to controls (mice; 3 μg/100 g)	caloric intake (mice; 3 μg/100 g, p=0.008)	reduction of caloric intake as compared to controls (mice; 10 μg/100 g)	caloric intake (mice; 10 μg/100 g, p=1.81E-06)	taste aversion (rodents)
PYY(3-36)	7	about 8	increases	8	about 8	8	does not raise the level of PYY in plasma above levels induced by the placebo/meal combination	decrease	16%	3.44 ± 0.06 kcal	26%	3.01 ± 0.06 kcal	42%	2.36 ± 0.05 kcal	does not cause taste aversion
amylin (KCNTATCATQRLANFLVHSSNNFGAILSSTNVGSNTY; not fully specified (C-terminus, bridges); cysteine pairing not given here; UniProt P10997 34-70, looked up) [peptide tested by salivary augmentation for comparison, reference compound]	–	–	–	–	–	–	–	no effect	–	–	–	–	–	–	–
neuropeptide Y [reference compound]	–	–	–	–	–	–	–	no effect	–	–	–	–	–	–	–
